According to patent US20040208944A1, “Compositions and methods against inflammatory processes” (priority 2002, published 2004):

What was measured:
[1] = target: COX-1 (Homo sapiens, UniProt P23219); test: Stressgen StressXpress cyclooxygenase activity kit, COX-1; format: biochemical; conditions: for COX-1 activity (RLU): vehicle 4115 RLU
Procedure: (§1) The Stressgen StressXpress™ cyclooxygenases activity Kit provides a method to measure specifically cyclooxygenases COX-1 and COX-2 in a variety of biological fluids. The kit uses a specific chemiluminescent substrate (aromatic hydrocarbon molecule) to detect the peroxidative activity of COX enzymes. […] Light emission begins immediately and chemiluminescent signal (Relative Luminescence Units—RLU—is measured after 30 minutes (luminometer Tecan). The amount of light emitted is directly proportional to the COX activity.

[2] = tested on: HT 29 cells; test: PGE2 synthesis in HT29 cells treated with α-CH2-γ-butyrolactone with and without TNF-α; format: cell-based, human; conditions: for pg PGE2/ml of medium + TNF-α / PGE2 % of control − TNF-α / pg PGE2/ml of medium − TNF-α: 21 h; for pg PGE2/ml of medium + TNF-α / PGE2 % of control + TNF-α: TNF-α 10 ng/ml for 6 h; for PGE2 % of control − TNF-α / pg PGE2/ml of medium − TNF-α: without TNF-α; for PGE2 % of control + TNF-α: relative to methanol control without TNF-α (control + TNF-α = 730)
Procedure: To this end, cells were cultured and passed in Mc Coy's 5A medium supplemented with arachidonic acid ([…]) and bovine serum albumin (0.01%). Cells were treated by alpha-methylen-gamma-butyrolactone (dissolved in methanol) at the following doses: 15, 30, 60 microM or by solvent alone during 21 h including or not stimulation with TNF-alpha (10 ng/ml) for 6 h. PGE2 analysis was performed using an Elisa test on a medium sample.

[3] = target: T1, COX-2 (Homo sapiens, UniProt P35354); test: Stressgen StressXpress cyclooxygenase activity kit, COX-2; format: biochemical
T1 sequence (P35354 18-604): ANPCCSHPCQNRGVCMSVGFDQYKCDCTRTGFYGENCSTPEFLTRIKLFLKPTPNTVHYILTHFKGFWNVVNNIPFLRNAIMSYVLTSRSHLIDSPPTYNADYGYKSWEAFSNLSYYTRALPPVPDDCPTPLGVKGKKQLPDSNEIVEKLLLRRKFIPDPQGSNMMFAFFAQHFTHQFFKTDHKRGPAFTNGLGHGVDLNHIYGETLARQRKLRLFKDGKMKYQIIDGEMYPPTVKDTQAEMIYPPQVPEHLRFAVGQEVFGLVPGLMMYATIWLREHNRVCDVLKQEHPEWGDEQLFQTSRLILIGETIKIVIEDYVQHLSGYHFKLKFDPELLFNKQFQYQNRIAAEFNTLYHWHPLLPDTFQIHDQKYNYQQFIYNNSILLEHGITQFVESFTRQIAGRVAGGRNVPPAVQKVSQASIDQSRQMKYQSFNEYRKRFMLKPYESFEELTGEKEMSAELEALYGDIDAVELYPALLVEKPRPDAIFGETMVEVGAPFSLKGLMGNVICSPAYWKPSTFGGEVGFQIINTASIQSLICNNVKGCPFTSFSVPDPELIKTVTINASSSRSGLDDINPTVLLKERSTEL
Procedure: as §1

[4] = tested on: COX-2 expression in HT29 cells; test: Western blot of COX-2 expression in HT 29 cells; format: cell-based, human; conditions: FIG. 1
Procedure: Western blot analysis: cells lysate were prepared by treating HT 29 cells (treated as above for PGE-2 determinations, i.e. in presence or absence of TNF-alpha and with or without α-CH2-γ-butyrolactone) with lysis buffer (150 mM NaCl, 10 mM Tris HCl pH 8, 1% Tween 20, EDTA pH 8 1 mM, proteases inhibitors, PEFA, (Merck), DETC (Aldrich)). Lysates were sonicated for 5 s, and centrifugated at 10000 g for 5 min. Proteins concentration were estimated by the Bradford method which was standardized using bovine serum albumine.
Whole cell extracts (25 μg) were boiled in Laemmli sample buffer and resolved by SDS-PAGE on 10% gel using the discontinuous polyacrylamide gel system. Non specific binding sites were blocked by incubating the membrane in 5% dried milk phosphate buffered saline solution containing 0.1% of tween-20 overnight at 4° C. Blots were hybridized in a 1:1000 dilution of a goat polyclonal anti COX-2 and also COX-1 antibody (C-20, Santa Cruz Biotechnology) in 5% milk PBS for 1 h at room temperature followed by 1 h of washing in 1% milk PBS. Subsequently, blots were probed with a secondary donkey anti-goat antibody horseradish peroxidase conjugated. After washing for 1 h, the complex was detected using ECL Western blotting reagents (Amersham)

COX-1, sequence (P23219 24-599): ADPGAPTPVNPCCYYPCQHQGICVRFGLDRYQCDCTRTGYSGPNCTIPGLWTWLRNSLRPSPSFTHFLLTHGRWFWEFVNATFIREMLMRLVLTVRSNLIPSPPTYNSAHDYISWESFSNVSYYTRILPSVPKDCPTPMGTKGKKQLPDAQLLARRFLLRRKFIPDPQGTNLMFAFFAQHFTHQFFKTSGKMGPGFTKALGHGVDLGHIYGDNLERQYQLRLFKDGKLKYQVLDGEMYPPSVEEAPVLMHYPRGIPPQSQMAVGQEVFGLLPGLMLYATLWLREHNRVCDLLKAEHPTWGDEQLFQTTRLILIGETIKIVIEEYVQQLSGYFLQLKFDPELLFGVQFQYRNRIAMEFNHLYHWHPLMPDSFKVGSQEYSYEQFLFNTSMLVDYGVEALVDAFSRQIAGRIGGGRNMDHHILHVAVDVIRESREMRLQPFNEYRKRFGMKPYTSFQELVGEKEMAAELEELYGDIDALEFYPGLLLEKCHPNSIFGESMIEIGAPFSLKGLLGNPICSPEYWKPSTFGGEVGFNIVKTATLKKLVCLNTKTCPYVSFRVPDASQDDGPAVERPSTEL

COX-1 activity % of control ([1]; 1 mM) | COX-1 activity (RLU) ([1]; 1 mM) | SMILES | pg PGE2/ml of medium + TNF-α ([2]; 15 μM) [pg/mL] | PGE2 % of control − TNF-α ([2]; 15 μM) | pg PGE2/ml of medium − TNF-α ([2]; 15 μM) [pg/mL] | PGE2 % of control + TNF-α ([2]; 15 μM) | pg PGE2/ml of medium + TNF-α ([2]; 30 μM) [pg/mL] | PGE2 % of control − TNF-α ([2]; 30 μM) | pg PGE2/ml of medium − TNF-α ([2]; 30 μM) [pg/mL] | PGE2 % of control + TNF-α ([2]; 30 μM) | pg PGE2/ml of medium + TNF-α ([2]; 60 μM) [pg/mL] | PGE2 % of control − TNF-α ([2]; 60 μM) | pg PGE2/ml of medium − TNF-α ([2]; 60 μM) [pg/mL] | PGE2 % of control + TNF-α ([2]; 60 μM) | COX-1 activity % of control ([1]; 40 μM) | COX-1 activity (RLU) ([1]; 40 μM) | COX-2 activity % of control ([3]; 40 μM) | COX-2 activity (RLU) ([3]; 40 μM, vehicle 26450 RLU) | inhibition of COX-2 activity (in words) ([3]; cyclooxygenase activity kit) | COX-2 expression (Western blot, in words) [4]
99 % of control | 4063 | CS(=O)(=O)Nc1ccc([N+](=O)[O-])cc1OC1CCCCC1 [NS-398, reference compound] | – | – | – | – | – | – | – | – | – | – | – | – | – | – | – | – | – | –
– | – | C=C1CCOC1=O [α-CH2-γ-butyrolactone, α-methylene-γ-butyrolactone] | 13286 | 108 % of control | 2814 | 512 % of control | 9349 | 76 % of control | 1970 | 360 % of control | 1310 | 14 % of control | 1144 | 50 % of control | 117 % of control | 4807 | 49 % of control | 12823 | inhibit specifically and with high potency COX-2 activity | inhibition of COX-2 expression
